Measured values taken from patent US11732240B2, “Direct conversion method of somatic cell into Hepatic stem cell, hepatic cell, or cholangiocyte” (UNIST(ULSAN NATIONAL INSTITUTE OF SCIENCE AND TECHNOLOGY), priority 2016, dated 2023).

Assays:
[1] = tested on: hepatocytes; conditions: 50 mM EtOH for 48 hrs
[2] = tested on: CYP related genes; assay: qRT-PCR of CYP related genes in induced hepatocytes after drug treatment; assay type: cell-based, mouse; conditions: iHep; 25 mM 3-Mc, 1 uM Dex or 50 mM ethanol; 72 hrs; versus DMSO control
Procedure: Total RNA was extracted and cDNA was synthesized in the same method as Example 1. qRT-PCR was performed using synthesized cDNA. mRNA expression of specific genes was confirmed using SYBR Green I Master (Roche, 04887352001) and primers in LightCycler® 480 equipment. The average value was calculated for three analyzes and normalized using Gapdh (5′-[…]-3′ (SEQ ID NO: 94) and 5′-[…]-3′ (SEQ ID NO: 95)). The expression level of mRNA was compared using comparative Ct method. Primer sequences used in qRT-PCR were shown below (sequences below were represented in the 5′ to 3′ direction).
The CYP family members were known to be regulated by aryl hydrocarbon receptor (AhR), constitutive androstane receptor (CAR), pregnane X receptor (PXR), and nuclear receptor which were abundantly found in liver tissue. In order to confirm whether hepatocytes induce CYP when a stimulus was given to such receptors, chemical compounds such as 3-methylcholanthrene (3Mc) which acts on aryl hydrocarbon receptors (Cyp1 family members) and glucocorticoid (Dex, dexamethasone) which acts on glucocorticoid receptors (glucocorticoid receptor regulating CAR and PXR is upstream of Cyp2/3 family members) were treated to receptors.
Specifically, cells were cultured with 60% confluency in HEP medium in which dexamethasone was not added. […]

Row | Compound | accumulation of fats and droplets in cytoplasm of hepatocytes [1] | expression of CYP family genes (mRNA) [2]
1 | CCO [ethanol] | accumulation of fats | 
2 | Cc1ccc2cc3c(ccc4ccccc43)c3c2c1CC3 [3-methylcholanthrene] |  | induced
